{"source": "patent US4243674A", "about": "“9-Hydroxydibenzo[b,d]pyrans and intermediates therefore” (priority 1978, dated 1981)", "key": {"[1]": {"tested_on": "phenylbenzoquinone-induced writhing", "assay": "Suppression of phenylbenzoquinone irritant-induced writhing (PBQ)", "format": "in vivo, Carworth Farms CF-1 mice", "conditions": "Mus musculus, mice, read-out: ANALGESIC ACTIVITY ED50, PBQ", "protocol": "Test Using Chemical Nociceptive Stimuli\nSuppression of Phenylbenzoquinone Irritant-Induced Writhing\nGroups of 5 Carworth Farms CF-1 mice are pretreated subcutaneously or orally with saline, morphine, codeine or the test compound. Twenty minutes (if treated subcutaneously) or fifty minutes (if treated orally) later, each group is treated with intraperitoneal injection of phenylbenzoquinone, an irritant known to produce abdominal contractions. The mice are observed for 5 minutes for the presence or absence of writhing starting 5 minutes after the injection of the irritant. MPE50 's of the drug pretreatments in blocking writhing are ascertained.\n(§1) Results of the above tests are recorded as percent maximum possible effect (% MPE). The % MPE of each group is statistically compared to the % MPE of the standard and the predrug control values. The % MPE is calculated as follows: [formula]\n(§2) By means of the above procedures, the analgesic activity of several compounds of this invention and of certain prior art compounds are determined. The data are reported in terms of maximum possible effect.\n(§3) PBQ=phenylbenzoquinone-induced writhing; TF=tail flick; HP=hot plate; RTC=rat tail clamp; FJ=flinch jump; and TI=tail immersion assays."}, "[2]": {"tested_on": "rat tail clamp", "assay": "Haffner tail pinch procedure / rat tail clamp (RTC)", "format": "in vivo, male albino rats, Charles River (Sprague-Dawley) CD strain", "conditions": "1 hour, read-out: ANALGESIC ACTIVITY ED50, RTC 1 hour", "protocol": "Tests Using Pressure Nociceptive Stimuli\nEffect on the Haffner Tail Pinch Procedure\nA modification of the procedure of Haffner, Experimentelle Prufung Schmerzstillender. Mittel Deutch Med. Wschr., 55, 731-732 (1929) is used to ascertain the effects of the test compound on aggressive attacking responses elicited by a stimulus pinching the tail. Male albino rats (50-60 b.) of the Charles River (Sprague-Dawley) CD strain are used. Prior to drug treatment, and again at 0.5, 1, 2 and 3 hours after treatment, a Johns Hopkins 2.5-inch \"bulldog\" clamp is clamped onto the root of the rat's tail. The endpoint at each trial is clear attacking and biting behavior directed toward the offending stimulus, with the latency for attack recorded in seconds. The clamp is removed in 30 seconds if attacking has not yet occurred, and the latency of response is recorded as 30 seconds. Morphine is active at 17.8 mg./kg. (i.p.).\nas §1, §2, §3"}, "[3]": {"tested_on": "tail flick", "assay": "Mouse tail flick analgesic testing (TF)", "format": "in vivo, mice", "conditions": "Mus musculus; tail flick, mice", "excerpt": "(§4) Tests Using Thermal Nociceptive Stimuli\n(b) Mouse Tail Flick Analgesic Testing\nTail flick testing in mice is modified after D'Amour and Smith, J. Pharmacol. Exp. Ther., 72, 74-79 (1941), using controlled high intensity heat applied to the tail. Each mouse is placed in a snug-fitting metal cylinder, with the tail protruding through one end. This cylinder is arranged so that the tail lies flat over a concealed heat lamp. At the onset of testing, an aluminum flag over the lamp is drawn back allowing the light beam to pass through the slit and focus onto the end of the tail. A timer is simultaneously activated. The latency of a sudden flick of the tail is ascertained. Untreated mice usually react within 3-4 seconds after exposure to the lamp. The end point for protection is 10 seconds. Each mouse is tested at 0.5 and 2 hours after treatment with morphine and the test compound. Morphine has an MPE50 of 3.2-5.6 mg./kg. (s.c.).\nas §1, §2, §3"}, "[4]": {"tested_on": "flinch jump", "assay": "Flinch-jump test (FJ)", "format": "in vivo, male albino rats, Charles River (Sprague-Dawley) CD strain", "conditions": "Rattus norvegicus, rats, 2 hours, read-out: ANALGESIC ACTIVITY ED50, FJ 2 hours", "excerpt": "Tests Using Electrical Nociceptive Stimuli\nA modification of the flinch-jump procedure of Tenen, Psychopharmacologia, 12, 278-285 (1968) is used for determining pain thresholds. Male albino rats (175-200 g.) of the Charles River (Sprague-Dawley) CD strain are used. Prior to receiving the drug, the feet of each rat are dipped into a 20% glycerol/saline solution. The animals are then placed in a chamber and presented with a series of 1-second shocks to the feet which are delivered in increasing intensity at 30-second intervals. These intensities are 0.26, 0.39, 0.52, 0.78, 1.05, 1.31, 1.58, 1.86, 2.13, 2.42, 2.72 and 3.04 mA. Each animal's behavior is rated for the presence of (a) flinch, (b) squeak and (c) jump or rapid forward movement at shock onset. Single upward series of shock intensities are presented to each rat just prior to, and at 0.5, 2, 4 and 24 hours subsequent to drug treatment.\nas §1, §2, §3"}, "[5]": {"tested_on": "hot plate", "assay": "Mouse hot plate analgesic testing (HP)", "format": "in vivo, mice", "conditions": "Mus musculus; hot plate, mice", "protocol": "as §4\n(a) Mouse Hot Plate Analgesic Testing\nThe method used is modified after Woolfe and MacDonald, J. Pharmacol. Exp. Ther., 80, 300-307 (1944). A controlled heat stimulus is applied to the feet of mice on a 1/8\" thick aluminum plate. A 250 watt reflector infrared heat lamp is placed under the bottom of the aluminum plate. A thermal regulator, connected to thermistors on the plate surface, programs the heat lamp to maintain a constant temperature of 57° C. Each mouse is dropped into a glass cylinder (61/2\" diameter) resting on the hot plate, and timing is begun when the animal's feet tough the plate. The mouse is observed at 0.5 and 2 hours after treatment when the test compound for the first \"flicking\"movements of one or both hind feet, or until 10 seconds elapse without such movements. Morphine has an MPE50 =4-5.6 mg./kg. (s.c.).\nas §1, §2, §3"}, "[6]": {"tested_on": "tail immersion", "assay": "Tail immersion procedure (TI)", "format": "in vivo, male albino mice, Charles River CD-1 strain", "conditions": "Mus musculus, 0.5 h; tail immersion, mice, 1/2 hour; read-out: ANALGESIC ACTIVITY ED50, TI 1/2 hour", "protocol": "(c) Tail Immersion Procedure\nThe method is a modification of the receptacle procedure developed by Benbasset, et al., Arch. int. Pharmacodyn., 122, 434 (1959). Male albino mice (19-21 g.) of the Charles River CD-1 strain are weighed and marked for identification. Five animals are normally used in each drug treatment group with each animal serving as its own control. For general screening purposes, new test agents are first administered at a dose of 56 mg./kg. intraperitoneally or subcutaneously, delivered in a volume of 10 ml./kg. Preceding drug treatment and at 0.5 and 2 hours post drug, each animal is placed in the cylinder. Each cylinder is provided with holes to allow for adequate ventilation and is closed by a round nylon plug through which the animal's tail protrudes. The cylinder is held in an upright position and the tail is completely immersed in the constant temperature waterbath (56° C.). The endpoint for each trial is an energetic jerk or twitch of the tail coupled with a motor response. In some cases, the endpoint may be less vigorous post drug. To prevent undue tissue damage, the trial is terminated and the tail removed from the waterbath within 10 seconds. The response latency is recorded in seconds to the nearest 0.5 second. A vehicle control and a standard of known potency are tested concurrently with screening candidates. If the activity of a test agent has not returned to baseline values at the 2-hour testing point, response latencies are determined at 4 and 6 hours. A final measurement is made at 24 hours if activity is still observed at the end of the test day.\nas §1, §2, §3"}, "[7]": {"tested_on": "central nervous system activity", "conditions": "Loev et al. 1973; cited from earlier work"}, "[8]": {"tested_on": "hashish activity", "conditions": "Bergel et al. 1943, cited from earlier work"}}}
{"smiles": "CCCCCC(C)Oc1cc(O)c2c(c1)OC(C)(C)[C@@H]1CC[C@@H](O)C[C@@H]21", "note": "(relative stereo) [OCH(CH3)C5 H11, dl-6aβ,7,8,9,10,10aα-Hexahydro-1-Hydroxy-6,6-Dimethyl-3-(2-Heptyloxy)-6H-Dibenzo[b,d]pyran-9β-ol]", "values": [{"measurement": "ED50", "setting": "[1]", "result": 0.16, "unit": "mg/kg"}, {"measurement": "ED50", "setting": "[2]", "result": 0.34, "unit": "mg/kg"}, {"measurement": "ED50", "setting": "[3]", "result": 0.46, "unit": "mg/kg"}, {"measurement": "ED50", "setting": "[4]", "result": 0.3, "unit": "mg/kg"}, {"measurement": "ED50", "setting": "[5]", "result": 1.2, "unit": "mg/kg"}, {"measurement": "ED50", "setting": "[6]", "result": 0.7, "unit": "mg/kg"}]}
{"smiles": "CCCCCC(C)Oc1cc(O)c2c(c1)OC(C)(C)C1=C2CC(C)CC1", "note": "(stereo not shown) [--OCH(CH3)C5 H11]", "values": [{"measurement": "less active in central nervous system activity than the corresponding compound with the alkyl side chain directly attached", "setting": "[7]", "result": 50, "unit": "%"}, {"measurement": "times as active as the compound in which oxygen is replaced by methylene", "setting": "[7]", "result": 5, "unit": "times"}]}
{"smiles": "CCCCOc1cc(O)c2c(c1)OC(C)(C)C1=C2CC(C)CC1", "note": "(stereo not shown) [butoxy]", "values": [{"measurement": "biological activity on replacing the 3-pentyl group by alkoxy", "setting": "[8]", "result": "biological inactivity"}]}
{"smiles": "CCCCCCOc1cc(O)c2c(c1)OC(C)(C)C1=C2CC(C)CC1", "note": "(stereo not shown) [hexoxy]", "values": [{"measurement": "biological activity on replacing the 3-pentyl group by alkoxy", "setting": "[8]", "result": "biological inactivity"}, {"measurement": "hashish activity", "setting": "[8]; at 10 to 20 mg./kg.", "result": "feeble hashish activity"}]}
{"smiles": "CCCCCCCCOc1cc(O)c2c(c1)OC(C)(C)C1=C2CC(C)CC1", "note": "(stereo not shown) [octoxy]", "values": [{"measurement": "biological activity on replacing the 3-pentyl group by alkoxy", "setting": "[8]", "result": "biological inactivity"}]}
{"smiles": "CCCCCOc1cc(O)c2c(c1)OC(C)(C)C1=C2CC(C)CC1", "note": "(stereo not shown) [pentoxy]", "values": [{"measurement": "biological activity on replacing the 3-pentyl group by alkoxy", "setting": "[8]", "result": "biological inactivity"}]}
